# In US20070197562A1, “Remedies for prostatic hypertrophy” (Yokohama TLO Company, Ltd., priority 2004, published 2007):
# Key:
# Assay type in all cases: cell-based, human
# PrSC cells [1] = assay: Losartan: proliferation of TNFα-stimulated PrSC cells (Example 9); settings: 5 days
# Protocol: (§1) PrSC cells were plated out on a 12-well dish at 25,000 cells per well, and cultured for 5 days in a phenol red-free F12 culture medium supplemented with 0.1% (W/V) BSA containing TNFα (1 ng/mL) and/or losartan (10 μM). Then the number of cells was counted. The group with no additive was used as the control group. Each group contained four wells (n=4).
# [2] = tested on: MAPK phosphorylation in PrSC cells; assay: MAPK phosphorylation in PrSC cells (Western blotting)
# Protocol: Stromal cells (PrSC) were cultured for 24 hours in a phenol red-free F12 medium containing 0.1% (W/V) BSA, to which angiotensin II (10 μM) or TNFα (1 ng/mL) was added each alone or in combination with either CV (10 μM) or losartan (“Los”; 10 μM) by replacing the medium. The cells were collected 10 minutes after the addition, and the total cellular proteins were extracted in the same manner as described in Example 10. Similarly, the cells cultured with no additive and the cells added with either CV or Los alone were processed in parallel. 3,000,000 PrSC cells were used for each sample.
# These samples were subjected to Western blotting in the same manner as described in Example 10.
# [3] = tested on: MAPK phosphorylation in PC-3 cells; assay: MAPK phosphorylation in PC-3 cells cultured in PrSC conditioned media (Western blotting)
# Protocol: Stromal cells (PrSC) were cultured in a phenol red-free F12 medium containing 0.1% (W/V) BSA, to which angiotensin II (10 μM) was added alone or in combination with losartan (“Los”; 10 μM). The culture medium was collected 24 hours after the addition, and used as a conditioned medium (“0.1% BSA-CM”).
# Stromal cells (PrSC) were cultured in a phenol red-free F12 medium containing 10% (V/V) FCS, to which CV (10 μM) or losartan (10 μM) was added. The culture medium was collected 24 hours after the addition, and used as a conditioned medium (“10% FCS-CM”) with no addition of angiotensin II. 10% FCS-CM with no additive was also prepared in the same manner.
# 3,000,000 PrSC cells were used for each of the above 10-1 and 10-2
# PC3 cells (prostate cancer cells) were cultured for 24 hours in a phenol red-free F12 medium supplemented with 0.1% (W/V) BSA. Then the medium was replaced with one of the conditioned media prepared as described above, and the cells were collected 10 minutes later. Total cellular proteins were extracted as described below. Similar protocol was done in parallel for PC-3 cells without using any conditioned medium (“Control”).
# The cells were washed twice with an ice-cold phosphate buffer (PBS), and lysed in 200 μL of an ice-cold cell lysis solution (lysis buffer; 20 mM of Tris (pH8.0), 137 mM of NaCl, 10% of glycerol, 0.1% of SDS, 0.5% of Nonidet P-40 (trade name), 100 mM of sodium fluoride, […] of sodium orthovanadate, 1 mM of EGTA, 2 mM of phenylmethylsulfonyl fluoride, […] of leupeptin, and […] of aprotinin). The mixture was centrifuged. Subsequently, the supernatant was collected.
# The resulting protein sample was subjected to SDS-PAGE in the routine manner, and the MAPK phosphorylation was determined by Western blotting using an anti-phospho-MAP kinase antibody or an anti-MAP kinase antibody) (both were purchased from Cell Signaling Technology (Beverly, Mass.)) as the detecting antibody.
# From the obtained results, the expression levels of pMAPK and MAPK bands were determined using NIH image software. On the basis of the results, the pMAPK/MAPK ratio in each lane was calculated, and then the ratio (“pMAPK ratio”) of the obtained value of each lane to that of the lane 1 (“Control”) was calculated by taking the value of Control as 1.
# PrSC cells [4] = assay: Losartan: proliferation of PrSC cells in 10% FCS (Example 8); settings: 5 days
# Protocol: as §1, with “20,000” for “25,000”, “medium” for “medium supplemented with 0.1% (W/V) BSA”, “10% (V/V) FCS and” for “TNFα (1 ng/mL) and/or”, “at various concentrations (0, 0.1, 1.0, and 10” for “(10”
# PrSC cells [5] = assay: Telmisartan: proliferation of EGF- or TNFα-stimulated PrSC cells (Example 7); settings: 5 days, P<0.01
# Protocol: as §1, with “containing EGF (10 ng/mL) or” for “containing”, “ng/mL), each alone or in combination with telmisartan (50” for “ng/mL) and/or losartan (10”
# PrSC cells [6] = assay: Proliferation of PrSC cells stimulated with angiotensin II, TGFβ or EGF (cell count, Examples 1-3); settings: 5 days
# Protocol: A Cell Line Derived from Normal Human Prostatic stromal cells, i.e., PrSC cells, was purchased from Sanko Junyaku Co. Ltd. (Normal Human Prostate Stromal Cells, catalogue number CC-2508), and maintained by subculturing them in a phenol red-free RPMI medium under conditions of 5% CO2 and 37° C.
# The PrSC cells (10^4 cells) were placed in a 12-well dish, and cultured in a phenol red-free medium containing 0.1% (W/V) BSA under conditions of 5% CO2 and 37° C. for several days. Then, 1 μM or 10 μM of angiotensin II was added. To some wells, CV (10 μM; hereinafter CV was used at this concentration unless otherwise noted) was added as an AIIR blocker 4 hours before adding angiotensin II. Each group contained four wells (n=4). After culturing the cells at 5% CO2 and 37° C. for 5 days, the number of all cells in each of the wells was counted.
# The effect of an AIIR blocker was examined in the same manner as Example 1, except for that 10 ng/mL of TGFβ was used in place of angiotensin II.
# The effect of an AIIR blocker was examined in the same manner as Example 1, except for that 10 ng/mL of EGF was used in place of angiotensin II.
# PrSC cells [7] = assay: IL-6 secretion by PrSC cells (CLEIA); settings: 24 hours
# Protocol: (§2) PrSC cells prepared in the same manner as Example 1, or F-1 or FT-FB cells prepared as described above were placed in a 6-well dish at 10^5 cells per well, cultured at 5% CO2 and 37° C. for 1 day (24 hours), and stimulated by the addition of TGFβ (1 ng/mL), TNFα (1 ng/mL), EGF (2.5 or 10 ng/mL), or angiotensin II (1 μM or 10 μM) (n=3). CV was added as the AIIR blocker to some wells 4 hours before adding the reagents. The culture media were collected 24 hours after adding the reagents, and the concentrations of IL-6 were determined by the CLEIA method.
# PrSC cells [8] = assay: Olmesartan: proliferation of TNFα-stimulated PrSC cells (Example 6); settings: TNFα (1 ng/mL) alone; 5 days; P<0.01
# Protocol: as §1, with “20,000” for “25,000”, “alone or in combination with olmesartan (1” for “and/or losartan (10”
# F-1 cells = assay: IL-6 secretion by primary-cultured F-1 cells (CLEIA); settings: angiotensin II 1 μM and 10 μM alone; 24 hours
# Protocol: The primary-cultured stromal cells (F-1 cells) derived from a patient with prostatic hypertrophy were prepared as described below.
# Tissues obtained from the patient were placed in a 50 mL centrifuge tube containing 20 mL of a medium (RPMI 1640, GIBCO 11835-030) supplemented with 10% (V/V) FBS (filtron) and mg/mL penicillin/streptomycin (GIBCO 15140-122), and allowed to stand at 4° C. for 1 hour or longer. Subsequently, the tissues were placed in a 10-cm dish, and cut into pieces of about 1 mm square. Blood vessels and the like were removed. At that time, to remove excessive blood (if necessary), the tissues were washed by adding 20 mL of the medium and centrifuging the mixture for 5 minutes at 1,000 rpm, followed by aspiration of the supernatant. […]
# as §2, with “CV was added as the AIIR blocker to some wells 4 hours before adding the reagents.” left out
compound,measurement,setting,value
CCCCc1nc(Cl)c(CO)n1Cc1ccc(-c2ccccc2-c2nn[nH]n2)cc1 [losartan],increase in the number of cells,"PrSC cells [1]; TNFα (1 ng/mL)+losartan (10 μM), P<0.02",significantly suppressed
same,cell proliferation vs control,PrSC cells [1]; losartan (10 μM) alone,showed no change
same,MAPK phosphorylation in PrSC cells,"[2]; AIIR blocker 10 μM added alone, lanes 8 and 9",not caused
same,MAPK phosphorylation in PrSC cells,"[2]; TNFα (1 ng/mL) in combination with AIIR blocker 10 μM, lanes 6 and 7, 10 minutes",suppressed
same,MAPK phosphorylation in PrSC cells,"[2]; angiotensin II (10 μM) in combination with AIIR blocker 10 μM, lanes 3 and 4, 10 minutes",suppressed
same,MAPK phosphorylation in PC-3 cells,"[3]; 0.1% BSA-CM from PrSC with angiotensin II (10 μM)+losartan (10 μM), lane 3 vs lane 2, 10 minutes",suppressed
same,MAPK phosphorylation in PC-3 cells,"[3]; 10% FCS-CM from PrSC with AIIR blocker 10 μM, no angiotensin II, lanes 5 and 6 vs lane 4, 10 minutes",suppressed
same,"cell proliferation, difference from control","PrSC cells [4]; losartan 10 μM, P<0.05",significant difference
same,cell proliferation vs control,"PrSC cells [4]; losartan 0.1, 1.0 and 10 μM",dose-dependently suppressed
"CCCc1nc2c(C)cc(-c3nc4ccccc4n3C)cc2n1Cc1ccc(-c2ccccc2C(=O)O)cc1 [telmisartan, 4′-{[4-methyl-6-(1-methyl-2-benzimidazolyl)-2-propyl-1-benzimidazolyl]methyl}-2-biphenylcarboxylic acid]",increase in the number of cells,PrSC cells [5]; EGF (10 ng/mL)+telmisartan (50 μM),significantly suppressed
same,increase in the number of cells,PrSC cells [5]; TNFα (1 ng/mL)+telmisartan (50 μM),significantly suppressed
"EGF: growth factor used to stimulate cells (NSDSECPLSHDGYCLHDGVCMYIEALDKYACNCVVGYIGERCQYRDLKWWELR; Epidermal growth factor; UniProt P01133 971-1023, looked up)",number of cells vs control,PrSC cells [5]; EGF (10 ng/mL) alone,significantly increased
same,number of cells vs control,PrSC cells [6]; EGF 10 ng/mL alone,significant increase
same,IL-6 secretion vs control,PrSC cells [7]; EGF 2.5 and 10 ng/mL alone,dose-dependent increase
TGFβ,"number of cells, increase vs control",PrSC cells [6]; TGFβ 10 ng/mL alone,more than 2 fold
same,IL-6 secretion vs control,PrSC cells [7]; TGFβ (1 ng/mL) alone,significantly promoted
TNFα,number of cells vs control,"PrSC cells [1]; TNFα (1 ng/mL) alone, P<0.05",significantly increased
same,number of cells vs control,PrSC cells [5]; TNFα (1 ng/mL) alone,significantly increased
same,number of cells vs control,PrSC cells [8],significantly increased
same,MAPK phosphorylation in PrSC cells,"[2]; TNFα (1 ng/mL) alone, lane 5",strongly activated
same,IL-6 secretion vs control,PrSC cells [7]; TNFα (1 ng/mL) alone,significantly promoted
"angiotensin II (DRVYIHPF; Angiotensin-2; UniProt P01019 25-32, looked up) [stimulant added to cells]",MAPK phosphorylation in PrSC cells,"[2]; angiotensin II (10 μM) alone, lane 2",strongly activated
same,IL-6 secretion vs control,F-1 cells,significant increase in a concentration-dependent manner
same,MAPK phosphorylation in PC-3 cells,"[3]; 0.1% BSA-CM from PrSC with angiotensin II (10 μM) alone, lane 2",caused
same,numbers of cells vs control,PrSC cells [6]; angiotensin II 1 μM or 10 μM alone,concentration-dependent increase
